Assay [1] has as its target T1, aldose reductase (Bos taurus, UniProt P16116).
T1 construct: partially purified aldose reductase enzyme obtained from calf lens; from tissue; host or cells: calf lens
The assay can be described thus: Aldose reductase inhibitory activity. In kind it is biochemical, calf lens (partially purified enzyme). Particulars: partially purified aldose reductase from calf lens; read-out: 50% Inhibitory Concentration. As to the method: The derivatives prepared in Examples 1-6 were tested for their ability to reduce or inhibit aldose reductase enzyme activity, following the procedure described in U.S. Pat. No. 3,821,383 and based on the procedure of Hayman et. al., Journal of Biological Chemistry, 240, 877 (1965). The substrate employed was partially purified aldose reductase enzyme obtained from calf lens. The drug was tested to determine the concentration that would cause 50 percent inhibition of enzyme activity.

The subject of assay [2] is sorbitol accumulation in the sciatic nerve. The experiment in a line: Inhibition of sorbitol accumulation in the sciatic nerve of streptozotocinized (diabetic) rats. It counts as in vivo. Particulars: oral at 4, 8 and 24 h after streptozotocin, rat sciatic nerve, 27 h after induction of diabetes. As for the experimental part:
Some of the Examples of derivatives prepared above were also tested for their ability to reduce or inhibit sorbitol accumulation in the sciatic nerve of streptozotocinized (i.e., diabetic) rats essentially by the procedure described in U.S. Pat. No. 3,821,383. In the present study, the amount of sorbitol accumulation in the sciatic nerves was measured 27 hours after induction of diabetes. The compounds were administered orally at the dose level indicated at 4, 8 and 24 hours following the administration of streptozotocin. The results obtained in this manner are presented in terms of percent inhibition (%) afforded by the test compound compared to the control where no compound was administered (i.e., the untreated animal where sorbitol levels normally rise from approximately […] tissue to as high as […] tissue in the 27-hour test period).

As to `O=C1NC(=O)C2(N1)c1ccccc1CCC2c1ccccc1` (stereo not shown) [Example 1, 1',2',3',4'-tetrahydro-3'-phenyl-spiro[imidazolidine-4,4'-naphthalene]-2,5-dione], in assay [1], the IC50 is more than 100 µM. Moreover, the “% Inhibition (sorbitol accumulation)” value in assay [2] (25 mg./kg. t.i.d.) is on record as 18%. As to `O=C1NC(=O)C2(CCC(c3ccccc3)c3ccccc32)N1` (stereo not shown) [Example 2, 1',2',3',4'-tetrahydro-1'-phenyl-spiro[imidazolidine-4,4'-naphthalene]-2,5-dione], the IC50 in assay [1] was found to be 100 µM. In assay [2] (25 mg./kg. t.i.d.), the “% Inhibition (sorbitol accumulation)” value is listed as 27%. As to `O=C1NC(=O)C2(CCOc3ccc(-c4ccccc4)cc32)N1` (stereo not shown) [Example 3, 6'-phenyl-spiro[imidazolidine-4,4'-chroman]-2,5-dione], the “% Inhibition (sorbitol accumulation)” value in assay [2] (1.5 mg./kg. t.i.d.) is listed as 0%.

Turning to `O=C1NC(=O)C2(CCOc3c(-c4ccccc4)cccc32)N1` (stereo not shown) [Example 4, 8'-phenyl-spiro[imidazolidine-4,4'-chroman]-2,5-dione], the IC50 in assay [1] was determined as 1 µM. The “% Inhibition (sorbitol accumulation)” value in assay [2] (10 mg./kg. t.i.d.) was 54%. Turning to `O=C1NC(=O)C2(CCOc3ccc(Oc4ccccc4)cc32)N1` (stereo not shown) [Example 5, 6'-phenoxy-spiro[imidazolidine-4,4'-chroman]-2,5-dione], the IC50 in assay [1] was 10 µM. The “% Inhibition (sorbitol accumulation)” value in assay [2] (1.5 mg./kg. t.i.d.) came out at 0%.

Turning to `O=C1NC(=O)C2(CCOc3c(Cl)cc(-c4ccccc4)cc32)N1` (stereo not shown) [Example 6, 8'-chloro-6'-phenyl-spiro[imidazolidine-4,4'-chroman]-2,5-dione], the IC50 in assay [1] amounted to 10 µM.

The values above are taken from patent publication US4181729A, “Phenyl or phenoxy substituted spiro-imidazolidinedione derivatives” (Pfizer Inc., priority 1979, dated 1980).
